Experimental data from publication PMC2883068 (Molecular Microbiology, 2010).

Molecular target: T1, Rex (Staphylococcus aureus, UniProt P60386)
T1 sequence (P60386 1-211): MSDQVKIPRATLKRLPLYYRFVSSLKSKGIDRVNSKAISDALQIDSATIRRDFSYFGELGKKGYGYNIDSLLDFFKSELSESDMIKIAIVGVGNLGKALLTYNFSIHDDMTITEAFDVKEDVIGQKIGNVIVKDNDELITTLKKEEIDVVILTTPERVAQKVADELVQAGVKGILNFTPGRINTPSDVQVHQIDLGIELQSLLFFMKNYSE
Assay: isothermal titration calorimetry
Assay type: binding

Row | SMILES | Kd [µM]
1 | NC(=O)c1ccc[n+]([C@@H]2O[C@H](COP(=O)(O)OP(=O)(O)OC[C@H]3O[C@@H](n4cnc5c(N)ncnc54)[C@H](O)[C@@H]3O)[C@@H](O)[C@H]2O)c1 [NAD^+] | 150 ± 20
2 | NC(=O)C1=CN([C@@H]2O[C@H](COP(=O)(O)OP(=O)(O)OC[C@H]3O[C@@H](n4cnc5c(N)ncnc54)[C@H](O)[C@@H]3O)[C@@H](O)[C@H]2O)C=CC1 [NADH] | 0.095 ± 0.005
